From US12673946B2, “Pyrimidin-4(3H)-one derivatives as TRPV4 antagonists” (RaQualia Pharma Inc., priority 2020, dated 2026)

Molecular target: T1, human TRPV4 (Homo sapiens, UniProt Q9HBA0)
T1 construct: host or cells: tetracycline-inducible Flp-In T-REx 293 cells
Test: Hypotonicity-induced Ca2+ influx (Fluo-4, FDSS)
Format: cell-based
How it was run: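 Flp-In T-REx 293 cells with tetracycline-induced human TRPV4, loaded with Fluo-4 for 60 min at 25 °C. Compound added 5 min before hypotonic mannitol/CaCl2 solution. Ca2+ signal recorded for 4.5 min on FDSS.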

[1] = Flp-In T-REx 293 cells expressing human TRPV4, examples listed under heading 'Human IC50<50 nM'
[2] = Flp-In T-REx 293 cells stably expressing human TRPV4, compounds listed by potency bin (<10 nM Tables 96-1/96-2, <3 nM Table 97)

T1 sequence (Q9HBA0 whole entry): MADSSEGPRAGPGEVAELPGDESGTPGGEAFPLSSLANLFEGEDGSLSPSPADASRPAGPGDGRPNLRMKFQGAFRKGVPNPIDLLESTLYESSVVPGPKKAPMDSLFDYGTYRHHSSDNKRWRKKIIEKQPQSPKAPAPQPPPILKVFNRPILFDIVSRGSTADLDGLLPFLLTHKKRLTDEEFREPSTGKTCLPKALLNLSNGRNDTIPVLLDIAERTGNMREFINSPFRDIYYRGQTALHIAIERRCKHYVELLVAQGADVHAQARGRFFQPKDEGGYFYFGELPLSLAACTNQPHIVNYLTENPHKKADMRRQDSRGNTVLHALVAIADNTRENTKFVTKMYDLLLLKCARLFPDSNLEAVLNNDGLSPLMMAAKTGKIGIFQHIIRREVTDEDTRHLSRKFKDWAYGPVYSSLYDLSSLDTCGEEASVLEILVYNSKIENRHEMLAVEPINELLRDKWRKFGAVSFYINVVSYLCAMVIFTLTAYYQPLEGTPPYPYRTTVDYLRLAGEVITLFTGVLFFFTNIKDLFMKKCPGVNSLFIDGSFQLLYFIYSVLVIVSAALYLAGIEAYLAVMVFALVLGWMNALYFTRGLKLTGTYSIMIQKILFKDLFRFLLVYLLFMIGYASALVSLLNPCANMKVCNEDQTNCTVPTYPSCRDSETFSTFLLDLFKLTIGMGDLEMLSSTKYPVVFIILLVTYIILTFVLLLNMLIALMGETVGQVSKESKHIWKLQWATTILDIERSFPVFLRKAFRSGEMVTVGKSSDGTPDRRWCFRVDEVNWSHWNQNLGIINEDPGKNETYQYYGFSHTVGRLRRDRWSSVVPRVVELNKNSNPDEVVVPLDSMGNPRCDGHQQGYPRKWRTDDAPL

| Structure (SMILES) | IC50 [1] | IC50 [2] |
| --- | --- | --- |
| CC(C)(C)c1cccc(-c2cccc([C@@H](O)C(=O)N3CCCc4nc(C5(c6cccc(C7CCCCC7)c6)CC5)[nH]c(=O)c4C3)c2)c1 [52-5] | < 0.05 µM | < 0.01 µM |
| O=C(Cc1ccc(COc2ccccc2)cc1)N1CCN(c2ccc(-c3cccc(C4(c5nc6c(c(=O)[nH]5)CN(C(=O)[C@H](O)c5cccc(C(F)(F)F)c5)CCC6)CC4)c3)cn2)CC1 [42-90] | < 0.05 µM | < 0.01 µM |
| CC(C)c1cccc(-c2cccc([C@@H](O)C(=O)N3CCCc4c(nc(C5(c6ccccc6)CC5)[nH]c4=O)C3)c2)c1 [49-57] | < 0.05 µM |  |
| O=C([C@H](O)c1cccc(-c2ccc(Cl)c(C(F)(F)F)c2)c1)N1CCc2nc(C3(c4ccccc4)CC3)[nH]c(=O)c2C1 [44-102] | < 0.05 µM | < 0.003 µM |
| CN(C(=O)c1csc(C2(c3nc4c(c(=O)[nH]3)CN(C(=O)[C@H](O)c3cccc(C(F)(F)F)c3)CCC4)CC2)c1)C(c1ccccc1)c1ccccc1 [59-13] | < 0.05 µM | < 0.01 µM |
| O=C(C(O)c1cccc(C(F)(F)F)c1)N1CCc2nc(C3(c4ccccc4)CC3)[nH]c(=O)c2C1 (centres unmarked) [3-66] | < 0.05 µM |  |
| O=C([C@H](O)c1cccc(-c2cncc(C(F)(F)F)c2)c1)N1CCCc2nc(C3(c4ccccc4)CC3)[nH]c(=O)c2C1 [49-21] | < 0.05 µM |  |
| O=C(C(O)c1cccc(-c2cccc(F)c2F)c1)N1CCc2nc(C3(c4ccccc4)CC3)[nH]c(=O)c2C1 (centres unmarked) [44-44] | < 0.05 µM |  |
| O=C(C(O)c1cccc(-c2ccc(Cl)cc2)c1)N1CCc2nc(C3(c4cccc(F)c4)CC3)[nH]c(=O)c2C1 (centres unmarked) [14-24] | < 0.05 µM |  |
| O=C([C@H](O)c1cccc(C(F)(F)F)c1)N1CCCc2nc(C3(c4cc(C5CCCC5)cs4)CC3)[nH]c(=O)c2C1 [30-1] | < 0.05 µM | < 0.003 µM |
| CC(C)(C)c1cccc(-c2cccc(CC(=O)N3CCCc4nc(C5(c6cccc(Cl)c6)CC5)[nH]c(=O)c4C3)c2)c1 [57-6] | < 0.05 µM | < 0.01 µM |
| O=C([C@H](O)c1cccc(C(F)(F)F)c1)N1CCc2nc(C3(c4cc(Br)cs4)CC3)[nH]c(=O)c2C1 [15-9] | < 0.05 µM | < 0.01 µM |
| O=C(COc1cccc(-c2ccccc2)c1)N1CCCc2nc(C3(c4cccc(Cl)c4)CC3)[nH]c(=O)c2C1 [17-105] | < 0.05 µM |  |
| O=C([C@H](O)c1cccc(Cl)c1)N1CCCc2nc(C3(c4cccc(-c5cccc(Cl)c5)c4)CC3)[nH]c(=O)c2C1 [40-6] | < 0.05 µM | < 0.01 µM |
| Cc1ccc(-c2cccc([C@@H](O)C(=O)N3CCc4nc(C5(c6ccccc6)CC5)[nH]c(=O)c4C3)c2)cc1Cl [44-94] | < 0.05 µM | < 0.01 µM |
| O=C(C(O)c1cccc(-c2ccnc(C(F)(F)F)c2)n1)N1CCc2nc(C3(c4ccccc4)CC3)[nH]c(=O)c2C1 (centres unmarked) [48-3] | < 0.05 µM | < 0.01 µM |
| O=C([C@H](O)c1cccc(C(F)(F)F)c1)N1CCCc2nc(C3(c4cc(C(=O)N(Cc5ccccc5)C5CCCCC5)cs4)CC3)[nH]c(=O)c2C1 [59-16] | < 0.05 µM | < 0.01 µM |
| O=C([C@H](O)c1cccc(-c2cccc(C(F)(F)F)c2)c1)N1CCCc2nc(C3(c4cccc(Cl)c4)CC3)[nH]c(=O)c2C1 [50-4] | < 0.05 µM | < 0.003 µM |
| O=C([C@H](O)c1cccc(F)c1F)N1CCCc2nc(C3(c4ccccc4)CC3)[nH]c(=O)c2C1 [10-6] | < 0.05 µM |  |

| Structure (SMILES) | IC50 [1] | IC50 [2] |
| --- | --- | --- |
| O=C([C@H](O)c1cccc(C(F)(F)F)c1)N1CCCc2nc(C3(c4cc(C(=O)N(C5CCCCC5)C5CCCCC5)cs4)CC3)[nH]c(=O)c2C1 [59-18] | < 0.05 µM | < 0.01 µM |
| O=C(N1CCCc2nc(C3(c4cccc(F)c4)CC3)[nH]c(=O)c2C1)C(F)(F)c1cccc(Cl)c1 [20-5] | < 0.05 µM | < 0.003 µM |
| O=C([C@H](O)c1cccc(C(F)(F)F)c1)N1CCCc2nc(C3(c4cccc(-c5ccc(CN6CCC(OCc7ccccc7)CC6)cc5)c4)CC3)[nH]c(=O)c2C1 [42-95] | < 0.05 µM | < 0.01 µM |
| CC(C)c1csc(C2(c3nc4c(c(=O)[nH]3)CN(C(=O)C(F)(F)c3cccc(C(F)(F)F)c3)CC4)CC2)c1 [21-5] | < 0.05 µM | < 0.01 µM |
| O=C(C(O)c1cccc(-c2ccc(F)c(F)c2)c1)N1CCc2nc(C3(c4ccccc4)CC3)[nH]c(=O)c2C1 (centres unmarked) [44-49] | < 0.05 µM |  |
| O=C([C@H](O)c1cccc(-c2cccc(C(F)(F)F)c2)c1)N1CCCc2nc(C3(c4cc(C5CCCCC5)cs4)CC3)[nH]c(=O)c2C1 [54-9] | < 0.05 µM | < 0.01 µM |
| O=C([C@H](O)c1cccc(-c2coc3ccccc23)c1)N1CCc2nc(C3(c4ccccc4)CC3)[nH]c(=O)c2C1 [44-112] | < 0.05 µM | < 0.01 µM |
| O=C(C(O)c1cccc(-c2ccccc2)c1)N1CCc2nc(C3(c4ccccc4)CC3)[nH]c(=O)c2C1 (centres unmarked) [44-55] | < 0.05 µM |  |
| COc1cc(-c2cccc(C3(c4nc5c(c(=O)[nH]4)CN(C(=O)[C@H](O)c4cccc(Cl)c4)CCC5)CC3)c2)ccn1 [40-14] | < 0.05 µM | < 0.003 µM |
| O=C([C@H](O)c1cccc(C(F)(F)F)c1)N1CCCc2nc(C3(c4cccc(-c5ccc(N6CCCC6)nc5)c4)CC3)[nH]c(=O)c2C1 [42-51] | < 0.05 µM | < 0.01 µM |
| CC(C)c1cccc(C2(c3nc4c(c(=O)[nH]3)CN(C(=O)[C@H](O)c3cccc(Cl)c3)CCC4)CC2)c1 [29-1] | < 0.05 µM | < 0.01 µM |
| O=C([C@H](O)c1cccc(C(F)(F)F)c1)N1CCCc2nc(C3(c4cccc(C5=CCN(C(=O)C6(C(F)(F)F)CC6)CC5)c4)CC3)[nH]c(=O)c2C1 [42-72] | < 0.05 µM | < 0.01 µM |
| O=C(Cc1ccc2ccccc2c1)N1CCCc2nc(C3(c4cccc(Cl)c4)CC3)[nH]c(=O)c2C1 [17-115] | < 0.05 µM |  |
| O=C([C@H](O)c1cccc(F)c1F)N1CCc2nc(C3(c4cccc(Cl)c4)CC3)[nH]c(=O)c2C1 [3-48] | < 0.05 µM |  |
| O=C(C(O)c1cccc(-c2ccc(Cl)cc2)c1)N1CCCc2nc(C3(c4cccs4)CC3)[nH]c(=O)c2C1 (centres unmarked) [18-5] | < 0.05 µM | < 0.01 µM |
| CC(C)(C)c1cccc(C(O)C(=O)N2CCCc3nc(C4(c5cccc(F)c5)CC4)[nH]c(=O)c3C2)c1 (centres unmarked) [17-21] | < 0.05 µM | < 0.01 µM |
| O=C([C@H](O)c1cccc(-c2coc3ccccc23)c1)N1CCCc2nc(C3(c4cccc(C5CCCCC5)c4)CC3)[nH]c(=O)c2C1 [52-7] | < 0.05 µM | < 0.01 µM |
| CNc1ccc(-c2cccc(C3(c4nc5c(c(=O)[nH]4)CN(C(=O)[C@H](O)c4cccc(C(F)(F)F)c4)CCC5)CC3)c2)cn1 [42-54] | < 0.05 µM | < 0.01 µM |
| O=C([C@H](O)c1cccc(C(F)(F)F)c1)N1CCc2nc(C3(c4cncc(C5CCC(F)(F)CC5)c4)CC3)[nH]c(=O)c2C1 [28-4] | < 0.05 µM | < 0.01 µM |

| Structure (SMILES) | IC50 [1] | IC50 [2] |
| --- | --- | --- |
| O=C([C@H](O)c1cccc(-c2ccc(Cl)cc2)c1)N1CCCc2nc(C3(c4cccc(Cl)c4)CC3)[nH]c(=O)c2C1 [50-5] | < 0.05 µM | < 0.003 µM |
| O=C(C(O)c1cccc(C(F)(F)F)c1F)N1CCc2nc(C3(c4cccs4)CC3)[nH]c(=O)c2C1 (centres unmarked) [15-16] | < 0.05 µM |  |
| CC(C)(C)c1cccc(-c2cccc([C@@H](O)C(=O)N3CCCc4nc(C5(c6cccs6)CC5)[nH]c(=O)c4C3)c2)c1 [53-4] | < 0.05 µM | < 0.01 µM |
| O=C([C@H](O)c1cccc(Cl)c1)N1CCc2nc(C3(c4cc(Cl)cs4)CC3)[nH]c(=O)c2C1 [15-14] | < 0.05 µM |  |
| O=C(Cc1cccc(OCc2ccccc2)c1)N1CCCc2nc(C3(c4ccccc4)CC3)[nH]c(=O)c2C1 [17-146] | < 0.05 µM | < 0.01 µM |
| O=C(Cc1cccc(C(F)(F)F)c1)N1CCCc2nc(C3(c4cccc(Cl)c4)CC3)[nH]c(=O)c2C1 [17-110] | < 0.05 µM | < 0.01 µM |
| O=C(C(O)c1cccc(-c2ccnc(C(F)(F)F)c2)c1)N1CCc2nc(C3(c4ccccc4)CC3)[nH]c(=O)c2C1 (centres unmarked) [44-17] | < 0.05 µM | < 0.01 µM |
| O=C(C(O)c1cccc(-c2cccc(SC(F)(F)F)c2)c1)N1CCc2nc(C3(c4ccccc4)CC3)[nH]c(=O)c2C1 (centres unmarked) [44-18] | < 0.05 µM | < 0.01 µM |
| Cc1cccc(-c2cccc(C(O)C(=O)N3CCc4nc(C5(c6ccccc6)CC5)[nH]c(=O)c4C3)c2)c1 (centres unmarked) [44-51] | < 0.05 µM |  |
| Cn1nccc1-c1cccc(C2(c3nc4c(c(=O)[nH]3)CN(C(=O)[C@H](O)c3cccc(C(F)(F)F)c3)CCC4)CC2)c1 [42-26] | < 0.05 µM | < 0.01 µM |
| O=C([C@H](O)c1cccc(-c2cc(Cl)cc(C(F)(F)F)c2)c1)N1CCCc2nc(C3(c4ccccc4)CC3)[nH]c(=O)c2C1 [49-36] | < 0.05 µM | < 0.003 µM |
| O=C(C(O)c1cccc(Oc2cccc(C(F)(F)F)c2)c1)N1CCc2nc(C3(c4ccccc4)CC3)[nH]c(=O)c2C1 (centres unmarked) [14-14] | < 0.05 µM |  |
| CC(C)c1cccc(C2(c3nc4c(c(=O)[nH]3)CN(C(=O)C(F)(F)c3cccc(Cl)c3)CC4)CC2)c1 [20-14] | < 0.05 µM |  |
| CN(C)c1ccc(-c2cccc(C3(c4nc5c(c(=O)[nH]4)CN(C(=O)[C@H](O)c4cccc(C(F)(F)F)c4)CCC5)CC3)c2)cc1 [42-11] | < 0.05 µM | < 0.003 µM |
| CC(C)c1csc(C2(c3nc4c(c(=O)[nH]3)CN(C(=O)Cc3cccc(-c5cccc(C(F)(F)F)c5)c3)CCC4)CC2)c1 [18-29] | < 0.05 µM | < 0.01 µM |
| N#Cc1cccc(-c2cccc(C3(c4nc5c(c(=O)[nH]4)CN(C(=O)[C@H](O)c4cccc(Cl)c4)CCC5)CC3)c2)c1 [40-21] | < 0.05 µM | < 0.003 µM |
| CC(C)c1cncc(C2(c3nc4c(c(=O)[nH]3)CN(C(=O)C(F)(F)c3cccc(C(F)(F)F)c3)CC4)CC2)c1 [22-9] | < 0.05 µM | < 0.01 µM |
| O=C(Cc1cccc(-c2cccc(F)c2)c1)N1CCCc2nc(C3(c4ccccc4)CC3)[nH]c(=O)c2C1 [57-1] | < 0.05 µM | < 0.01 µM |
| O=C([C@H](O)c1cccc(-c2ccc(Cl)c(OC(F)(F)F)c2)c1)N1CCc2nc(C3(c4ccccc4)CC3)[nH]c(=O)c2C1 [44-97] | < 0.05 µM | < 0.01 µM |
